Results from US20210177805A1 (Ovid Therapeutics Inc., priority 2018, published 2021).

Legend:
[1] = human, in vivo
Experimental: Each subject was expected to complete all 6 treatment periods and there was a washout of at least 4 days between each treatment period.
Each oral dosing within Treatment Periods consisted of 2 capsules of test drug taken simultaneously at each scheduled dosing. […] Subjects received their study drug after an overnight fast with 240 mL of water in the morning about 8:00 AM. Water was permitted ad libitum except within 1 hour prior to and after study drug administration. No food was allowed for 4 hours post dose.

[2] = test system: subjects with Angelman syndrome; assay: Efficacy in patients with Angelman syndrome, Clinical Global Impressions (CGI-S, CGI-I); format: in vivo, human
Source text: CGI-S scale assessed all sub-domains of Angelman syndrome (gross and fine motor ability, sleep, and adaptive behavior) plus globally by the investigator. […] The Clinical Global Impressions-Improvement (CGI-I) scale was used to assess all sub-domains of Angelman syndrome (gross and fine motor ability, sleep, and adaptive behavior) plus globally by the investigator and caregiver. CGI-I is a 7-point scale in which the investigator rates the improvement or worsening of symptoms compared to baseline.
Moreover, the percentage who were very much improved on CGI-I in the QD group vs placebo went from 20% (vs. 11%) to 27% (vs. 9%) to 33% (vs. 0%) progressing from the oldest to youngest cohorts.

[3] = test system: subjects with Angelman syndrome; assay: Treatment-related and treatment-emergent adverse events in patients with Angelman syndrome
Experimental: This multicenter, randomized, parallel (3-arm), double-blind, placebo-controlled trial enrolled 88 patients including adults (n=66) and adolescents (n=22) aged 13 to 49 years of age, diagnosed with Angelman syndrome. […] The dosing schedules that were assessed against placebo were once daily (QD): An evening dose titrated to the target dose of 15 mg unless not tolerated; and twice daily (BID): Evening and morning doses titrated to the target doses of 15 mg evening dose and 10 mg morning dose unless not tolerated.
Gastrointestinal adverse events may be considered fundamental to the behavioral disturbances seen in autistic spectrum disorders, such as autism and Angelman syndrome.

[4] = test system: subjects with Angelman syndrome; assay: Sleep diary in patients with Angelman syndrome; format: in vivo, human; conditions: for 6-week LS Mean difference, total sleep time at night / 12-week LS Mean difference, total sleep time at night: change from baseline
Source text: The most notable change from patient sleep diaries was in the number of nights slept independently. In the QD dose cohort, one quarter of patients slept every night with parents, at 12 weeks, this had improved to only 1 in 5 nights; in the placebo group, the most effected quarter slept 3 of 4 nights with parents, which had improved to 2 of 4 nights at 12 weeks (P<0.001, Chi Square). The observed and change from baseline in total hours of sleep time at night (assessed from subject Sleep Diary) is provided in Table III.

With Oc1noc2c1CCNC2 [gaboxadol, 4,5,6,7-tetrahydroisoxazolo [5,4-c]pyridine-3-ol] the “CL (CL/F row, footnote for 10 mg IV)” value ([1]; iv, 10 mg) was 438 mL/min, the “AUC0-∞ Slope (90% CI), dose proportionality assessment” value ([1]; po) was 0.98 (0.95, 1.01) and the CGI-I ([2]; QD 15 mg evening dose, 7-point scale, vs. 3.8 placebo, p=0.0006) was 3.0. For the same molecule, the “CGI-I 12-week LS Mean” value ([2]; QD dosing (N = 29), clinician assessed, MMRM) was 3.00 (0.16), the “Abdominal Pain upper, subjects (%)” value ([3]; BID dosing (N = 29)) was 0 and the “At least 1 Adverse Event, subjects (%)” value ([3]; BID dosing (N = 29)) was 19 (66%)^. The “Diarrhea, subjects (%)” value ([3]; BID dosing (N = 29)) was 1 (3.4%), the “Gastrointestinal disorders, subjects (%)” value ([3]; BID dosing (N = 29)) was 4 (13.8%) and the “Nausea, subjects (%)” value ([3]; BID dosing (N = 29)) was 2 (6.9%). For the same molecule, the “Retching, subjects (%)” value ([3]; BID dosing (N = 29)) was 1 (3.4%), the “Vomiting, subjects (%)” value ([3]; BID dosing (N = 29)) was 1 (3.4%) and the “Abdominal Pain upper, subjects (%)” value ([3]; Combined (N = 58)) was 0. The “At least 1 Adverse Event, subjects (%)” value ([3]; Combined (N = 58)) was 37 (64%)^, the “Diarrhea, subjects (%)” value ([3]; Combined (N = 58)) was 1 (1.7%) and the “Gastrointestinal disorders, subjects (%)” value ([3]; Combined (N = 58)) was 4 (6.9%). The “Nausea, subjects (%)” value ([3]; Combined (N = 58)) was 2 (3.4%), the “Retching, subjects (%)” value ([3]; Combined (N = 58)) was 1 (1.7%) and the “Vomiting, subjects (%)” value ([3]; Combined (N = 58)) was 1 (1.7%). For the same molecule, the “Abdominal Pain upper, subjects (%)” value ([3]; QD dosing (N = 29)) was 0, the “At least 1 Adverse Event, subjects (%)” value ([3]; QD dosing (N = 29)) was 18 (62%) and the “Diarrhea, subjects (%)” value ([3]; QD dosing (N = 29)) was 0. The “Gastrointestinal disorders, subjects (%)” value ([3]; QD dosing (N = 29)) was 0, the “Nausea, subjects (%)” value ([3]; QD dosing (N = 29)) was 0 and the “Retching, subjects (%)” value ([3]; QD dosing (N = 29)) was 0. The “Vomiting, subjects (%)” value ([3]; QD dosing (N = 29)) was 0, the “6-week LS Mean sleep time (total sleep time at night, Sleep Diary)” value (“6-week LS Mean sleep time” below) ([4]; BID dosing (N = 29)) was 8.95 (1.1) hours and the “12-week LS Mean sleep time (total sleep time at night, Sleep Diary)” value (shortened to “12-week LS Mean sleep time”) ([4]; BID dosing (N = 29)) was 8.84 (1.1) hours. For the same molecule, the “6-week LS Mean difference, total sleep time at night” value (from here on “6-week LS Mean difference”) ([4]; BID dosing) was 0.30 (1.1) hours, the “12-week LS Mean difference, total sleep time at night” value (“12-week LS Mean difference” below) ([4]; BID dosing) was 0.18 (0.97) hours and the “6-week LS Mean sleep time” value ([4]; Combined (N = 58)) was 8.93 (1.3) hours. For the same molecule, the “12-week LS Mean sleep time” value ([4]; Combined (N = 58)) was 8.80 (1.1) hours, the “6-week LS Mean difference” value ([4]; Combined) was 0.22 (0.94) hours and the “12-week LS Mean difference” value ([4]; Combined) was 0.07 (1.0) hours. The “6-week LS Mean sleep time” value ([4]; QD dosing (N = 29)) was 8.91 (1.5) hours, the “12-week LS Mean sleep time” value ([4]; QD dosing (N = 29)) was 8.76 (1.2) hours and the “6-week LS Mean difference” value ([4]; QD dosing) was 0.14 (0.81) hours. For the same molecule, the “12-week LS Mean difference” value ([4]; QD dosing) was −0.04 (1.1) hours.
